Assay results as given in patent US20230234983A1, “SQUALAMINE CRYSTALLINE POLYMORPHS” (Enterin, Inc., priority 2022, published 2023).
Entries after “also recorded” stand apart in the source; their conditions may differ.

What was measured:
Type in all cases: physicochemical
[1] = Physical stability upon drying under vacuum, HT-XRPD
Method: (§1) The solvent equilibration experiments were incubated in the Crystal16™ parallel crystallization reactor at 5, 25 and 50° C. for 3 days. Up on completion of the ageing time, the solids were separated from the liquid phases, dried at ambient conditions and under vacuum, and analyzed by HT-XRPD. Afterwards, all solids were exposed to AAC (40° C./75% RH) for 2 days and remeasured by HT-XRPD. The liquids were analyzed by Karl Fisher to estimate the water content. The experimental details and results are reported in Table 9, Table 10 and Table 11.
(§2) Upon completion of the equilibration time, the solids were dried at ambient conditions and under vacuum (5 mbar/50° C./overnight) and analyzed by HT-XRPD. Afterwards, all solids were exposed to AAC (40° C./75% RH) for 2 days and remeasured by HT-XRPD.
Thermocycling experiments were started by preparing suspensions of Form B1 in the selected anhydrous solvents. The suspensions were subjected to a temperature profile between 50 and 5° C., followed by aging at 25° C. for 72 hours. Upon completion of the aging time, the solids were separated from the liquid phases, dried at ambient conditions and under vacuum, and measured by HT-XRPD. When solutions were recovered, those were left to evaporate at ambient conditions.

[2] = Physical stability upon exposure to AAC (40° C./75% RH) for 2 days, remeasured by HT-XRPD; conditions: for solid form conversion upon exposure to AAC: HT-XRPD
Method: as §1, §2
Table 11: Experimental details and results of equilibration experiments performed at 50° C. for 1 week. Upon completion of the equilibration time, the solids were dried at ambient conditions and under vacuum (5 mbar/RT/overnight) and analyzed by HT-XRPD. Afterwards, all solids were exposed to AAC (40° C./75% RH) for 2 days and remeasured by HT-XRPD.

[3] = Investigation under variable RH levels by DVS and XRPD
Method: The powder data were collected on D8 Advance diffractometer using Cu Kα1 radiation (1.54056 Å) with germanium monochromator at 30° C. using the SYCOS H-HOT hot humid chamber produced by Ansyco GmbH. The data were collected in the Bragg-Brentano geometry (locked coupled) from 8 to 35θ 2θ on the flat sample holder (without rotation) on solid state LynxEye detector with 0.018θ per step with 1 sec/step scan speed. After reaching demanded humidity the sample was relaxed for 5 minutes before measurement. The sample was optionally measured with 2 seconds per step and in the last measurement at RH 000 the relaxation time was elongated to 30 min.

[4] = Physical stability of Form B1 at three storage conditions (Example 10)
Method: Solid samples of Form B 1 was incubated at three different conditions to test physical stability: 80° C., closed vial, 24 hours; 60° C./29% RH, open vial, 48 hours; and 40° C./75% RH, open vial, 48 hours. The solids recovered after the stability studies were analyzed by HIR-XRPD, TGMS, and DSC.

[5] = sample recovered from thermocycling in ethyl acetate

With CC(C)[C@@H](CC[C@@H](C)[C@H]1CC[C@H]2[C@@H]3[C@H](O)C[C@H]4C[C@@H](NCCCNCCCCN)CC[C@]4(C)[C@H]3CC[C@]12C)OS(=O)(=O)O.O=P(O)(O)O [Form A1, squalamine phosphate] the “solid form conversion in vacuum-dried solids of the hydrate screen” value ([1]; vacuum-dried, in some cases) was “converted to the mixed hydrate/solvate Form A2, or to the low-degree hydrates B1 and B2”.

For CC(C)[C@@H](CC[C@@H](C)[C@H]1CC[C@H]2[C@@H]3[C@H](O)C[C@H]4C[C@@H](NCCCNCCCCN)CC[C@]4(C)[C@H]3CC[C@]12C)OS(=O)(=O)O.O=P(O)(O)O [Form E, squalamine phosphate], the “solid form conversion upon exposure to AAC” value ([2]; listed as E) was “converted to Form A1”, the “solid form conversion upon drying under vacuum” value ([1]; 5 mbar/50° C./overnight, solid from thermocycling in methanol) was “converted to Form F; also recorded: conversion to a poorly crystalline phase, classified as Form F” and the “Physical Stability” value ([1]; upon drying at 50° C.) was “Unstable upon”.

In the case of CC(C)[C@@H](CC[C@@H](C)[C@H]1CC[C@H]2[C@@H]3[C@H](O)C[C@H]4C[C@@H](NCCCNCCCCN)CC[C@]4(C)[C@H]3CC[C@]12C)OS(=O)(=O)O.O=P(O)(O)O [Form F, squalamine phosphate], the “solid form conversion upon exposure to AAC” value ([2]; listed as F) is reported as “converted to Form A1”.

In the case of CC(C)[C@@H](CC[C@@H](C)[C@H]1CC[C@H]2[C@@H]3[C@H](O)C[C@H]4C[C@@H](NCCCNCCCCN)CC[C@]4(C)[C@H]3CC[C@]12C)OS(=O)(=O)O.O=P(O)(O)O [Form C, squalamine phosphate], the “behaviour on release of water at low RH levels or at high temperature” value [3] is reported as “converting to Form A1”.

In the case of CC(C)[C@@H](CC[C@@H](C)[C@H]1CC[C@H]2[C@@H]3[C@H](O)C[C@H]4C[C@@H](NCCCNCCCCN)CC[C@]4(C)[C@H]3CC[C@]12C)OS(=O)(=O)O.O=P(O)(O)O [Form B2, squalamine phosphate], the “solid form conversion upon exposure to AAC” value ([2]; listed as B2) is reported as “converted to Form A1; also recorded: conversion to Form A1”, the “physical stability upon drying” value [1, 5] is reported as “not physically stable” and the “solid form conversion upon drying” value [1, 5] is reported as “converted to a mixture of Forms A1 and D”. The “physical stability upon drying” value ([1]; samples recovered from 1-propanol and THE) was “stable”.

In the case of CC(C)[C@@H](CC[C@@H](C)[C@H]1CC[C@H]2[C@@H]3[C@H](O)C[C@H]4C[C@@H](NCCCNCCCCN)CC[C@]4(C)[C@H]3CC[C@]12C)OS(=O)(=O)O.O=P(O)(O)O [Form B1, squalamine phosphate], the “solid form conversion upon exposure to AAC” value ([2]; listed as B1) is reported as “converted to Form A1”, the “RH at which the form already absorbs water, converting to Form A1” value [4] is reported as 29 % RH and the “Mass loss (%)” value ([4]; TGMS of solid recovered after 40° C./75% RH, open vial 48 h) is reported as 8.9%. The “Mass loss (%)” value ([4]; TGMS of solid recovered after 60° C./29% RH, open vial 48 h) was 9.0% and the “Mass loss (%)” value ([4]; TGMS of solid recovered after 80° C., closed vial, 24 h) was 1.8%.

For CC(C)[C@@H](CC[C@@H](C)[C@H]1CCC2C3C(CC[C@@]21C)[C@@]1(C)CC[C@H](NCCCNCCCCN)C[C@@H]1C[C@H]3O)OS(=O)(=O)O.O=P(O)(O)O (stereo in doubt) [Form D, squalamine phosphate], the “physical stability upon exposure to AAC” value [2] was “physically unstable” and the “solid form conversion upon exposure to AAC” value [2] was “converted to a mixture containing Form A1 and an unknown phase”.

In the case of CC(C)[C@@H](CC[C@@H](C)[C@H]1CC[C@H]2[C@@H]3[C@H](O)C[C@H]4C[C@@H](NCCCNCCCCN)CC[C@]4(C)[C@H]3CC[C@]12C)OS(=O)(=O)O.O=P(O)(O)O [Form A2, squalamine phosphate], the “physical stability upon exposure to AAC” value [2] is reported as “physically unstable” and the “solid form conversion upon exposure to AAC” value ([2]; listed as A2) is reported as “converted to Form A1”.
